# Assay results published in article PMC9574886 (Bioorganic & medicinal chemistry, 2022).
# Structures can show the parent of a compound that is named as a salt.
# What was measured:
# [1] = PAMPA-BBB parallel artificial membrane permeability assay; assay type: in vitro ADME; conditions: 17 h, 200 μM, triplicate, in-house conditions
# [2] = target: human eNOS (Homo sapiens, UniProt P29474); experiment: NO-hemoglobin; assay type: biochemical; conditions: hn/he compared to lead 9
# [3] = target: human nNOS (Homo sapiens, UniProt P29475); experiment: NO-hemoglobin; assay type: biochemical; conditions: for drop in potency with hnNOS relative to 12: compared with 12
# [4] = target: purified rat nNOS (Rattus norvegicus, UniProt P29476); experiment: NO-hemoglobin; assay type: biochemical; conditions: for drop in potency with rnNOS relative to 12: compared with 12
Structure (SMILES),Determined Pe [1],drop in potency with hnNOS relative to 12 [3] [fold],other results
"Cc1cc(N)nc(CCCN(C)C)c1 [Compound 12, 6-(3-(dimethylamino)propyl)-4-methylpyridin-2-amine dihydrochloride]",2.0 10^−6 cm s^−1,–,drop in heNOS selectivity as compared to lead 9 [2]: 8 fold
"Cc1cc(N)nc(CCCN2CCC(F)(F)CC2)c1 [Compound 20, 6-(3-(4,4-difluoropiperidin-1-yl)propyl)-4-methylpyridin-2-amine dihydrochloride]",17.3 10^−6 cm s^−1,–,–
"Cc1cc(N)nc(C#CCN2CC(F)(F)C2)c1 [Compound 17, 6-(3-(3,3-difluoroazetidin-1-yl)prop-1-yn-1-yl)-4-methylpyridin-2-amine dihydrochloride]",–,~17,better affinity than 19 with hnNOS ([3]; compared with 19): 3 fold; better affinity than 19 with rnNOS ([4]; compared with 19): 3 fold
"Cc1cc(N)nc(C#CCN2CCN(C)CC2)c1 [Compound 13, 4-methyl-6-(3-(4-methylpiperazin-1-yl)prop-1-yn-1-yl)pyridin-2-amine dihydrochloride]",–,~73,–
"Cc1cc(N)nc(C#CCCN(C)C)c1 [Compound 15, 6-(4-(dimethylamino)but-1-yn-1-yl)-4-methylpyridin-2-amine dihydrochloride]",–,11,–
"Cc1cc(N)nc(CCCCN(C)C)c1 [Compound 16, 6-(4-(dimethylamino)butyl)-4-methylpyridin-2-amine dihydrochloride]",–,~2,–
"CNCC#Cc1cc(C)cc(N)n1 [Compound 10, 4-methyl-6-(3-(methylamino)prop-1-yn-1-yl)pyridin-2-amine dihydrochloride]",–,–,drop in potency with rnNOS relative to 12 [4]: 3 fold
"Cc1cc(N)nc(C#CCN2CCC(F)(F)CC2)c1 [Compound 19, 6-(3-(4,4-difluoropiperidin-1-yl)prop-1-yn-1-yl)-4-methylpyridin-2-amine]",21.1 10^−6 cm s^−1,~49,drop in potency with rnNOS relative to 12 [4]: about 61 fold
